The results in this text go back to patent publication US12624018B1, “Inhibitors of RIPK2 and medical uses thereof” (Odyssey Therapeutics, Inc., priority 2022, dated 2026).

The target of one assay is T1, RIPK2 enzyme (Homo sapiens, UniProt O43353).
T1 construct: purchased Carna 09-128
Put plainly: RIPK2 inhibition (ADP-Glo Kinase Assay). The format is biochemical. To be noted: RIPK2 5 nM, ATP 150 μM, MBP substrate, read-out: RIPK2 IC50. In short, it runs like this: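 Swine MBP substrate; compound and 5 nM RIPK2 first mixed for 30 min at room temperature; buffer pH 7.5 HEPES 50 mM with 10 mM MgCl2, 2 mM DTT, 1 mM EGTA, Brij-35, BSA.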
(In general: ADP-Glo turns the ADP formed in a reaction into a luminescent signal.)

Another assay relates to human NOD2 signaling. Description: Inhibition of human NOD2 signaling in HEK-Blue-hNOD2 cells (L18-MDP stimulated, SEAP reporter). It is filed as cell-based. To be noted: Homo sapiens, HEK-Blue hNOD2, HEK-Blue-hNOD2 cells, NOD2 ligand stimulation, SEAP reporter; read-out: hNOD2 IC50. Here is the method:
Materials: Human NOD32-expressing 1TEK293 cells, HEK-Blue™-hNOD2 cells, were developed by Invivogen (catalogue number: hkb-hnod2) using co-transfection of the human NOD2 gene and an optimized secreted embryonic alkaline phosphatase (SEAP) reporter gene into HTEK293 cells. The cell maintenance medium consisted of DMEM (Giboc, 21063-029), heat inactivated FBS, penicillin (100 U/mL), streptomycin (100 μg/mL), Normocin (100 μg/mL), Blasticidin (30 μg/mL), and Zeocin (100 μg/mL). HEK-Blue™-hNOD2 cells were transferred to assay medium consisting of DMEM (Giboc, 21063-029), heat inactivated FBS, penicillin (100 U/mL) and streptomycin (100 μg/mL) prior to stimulation. Stimulation with a NOD2 ligand, L18-MDP (Invivogen, catalogue number: tlrl-lmdp) activated NF-κB and AP-1 which induced the production of SEAP. Levels of SEAP were determined with HEK-Blue™ Detection (referred to as QUANTI-Blue solution), a cell culture medium that allows for real-time detection of SEAP. QUANTI-Blue solution was prepared by adding 1 mL of QB reagent and 1 mL of QB buffer to 98 mL of sterile H2O. Test compounds were prepared into a 10 mM DMSO solution and were serially diluted into 10 points using a 3-fold dilution in a 384 well plate using a TECAN EVO200.
Method: In a 384 well plate, 40 nL of test compound was dispensed using Echo550. HEK-Blue™-hNOD2 cells (Invivogen) were prepared into a cell suspension and 40 μL of the cell suspension (12500 cells per well) was dispensed into the 384 well plate. To activate NOD2 signaling, 40 nL of L18-MDP (final concentration of 0.5 ng/mL) was added and the plate was incubated at 37° C. in a CO2 incubator for 24 hours. After the 24-hour incubation, 5 μL of the induced HEK-Blue hNOD2 cell supernatant was transferred to a new 384-well plate, centrifuged, and 45 μL of QUANTI-Blue solution was added per well and incubated for 3 hours at 37° C. SEAP levels were measured using an Ensight at 620 nm. Percent inhibition of NOD2 signaling was determined using the following equation: (high control−test compound signal)/(High control−low control)×100. The reaction high control was determined using wells with DMSO, cells, L18-MDP, and QUANTI-Blue solution. The reaction low control was determined using wells with DMSO, cells, and QUANTI-Blue solution. 4-parametric curve fit was used to determine the test compound concentration that results in 50% reduction of L18-MDP-driven human NOD2 signaling.
Using the assay described above, inhibition of hNOD2 signaling was also evaluated for GSK 2983559 (Haile at al., J. Med. Chem. 2019, 62, 14, 6482-6494), a known RIPK2 kinase inhibitor: […]

T1 sequence (O43353 1-299 limits assumed): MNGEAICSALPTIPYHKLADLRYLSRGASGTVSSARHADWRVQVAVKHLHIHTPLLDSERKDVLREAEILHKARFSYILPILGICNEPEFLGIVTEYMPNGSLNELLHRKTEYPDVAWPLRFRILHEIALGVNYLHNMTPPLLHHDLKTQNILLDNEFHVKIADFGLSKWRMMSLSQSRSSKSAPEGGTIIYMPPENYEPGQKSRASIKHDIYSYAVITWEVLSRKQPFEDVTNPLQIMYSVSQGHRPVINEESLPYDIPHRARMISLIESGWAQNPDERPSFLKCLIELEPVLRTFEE

With `CCc1nc(-c2ccc3nccc(Oc4cc(F)c(CC(=O)Nc5cnn(C(C)(C)C)c5)cc4C)c3c2)n[nH]1` [Compound 483, N-(1-(tert-butyl)-1H-pyrazol-4-yl)-2-(4-((6-(5-ethyl-1H-1,2,4-triazol-3-yl)quinolin-4-yl)oxy)-2-fluoro-5-methylphenyl)acetamide], the values for the IC50 at RIPK2 enzyme and in the assay with human NOD2 signaling were < 2.5 nM and 0.6 nM, respectively.

Turning to `Cc1cc(CC(=O)Nc2cnn(C(C)(C)C)c2)c(F)cc1Oc1ccnc2ccc(-c3nc[nH]n3)cc12` [Compound 484, 2-(4-((6-(1H-1,2,4-triazol-3-yl)quinolin-4-yl)oxy)-2-fluoro-5-methylphenyl)-N-(1-(tert-butyl)-1H-pyrazol-4-yl)acetamide], the IC50 is < 2.5 nM on RIPK2 enzyme and 0.4 nM in the assay on human NOD2 signaling.

Turning to `[2H]C([2H])([2H])c1cc(CC(=O)Nc2cnn(C(C)(C)C)c2)ccc1Oc1ccnc2ccc(S(=O)(=O)C([2H])([2H])[2H])cc12` [Compound 485, N-(1-(tert-butyl)-1H-pyrazol-4-yl)-2-(3-(methyl-d3)-4-((6-((methyl-d3)sulfonyl)quinolin-4-yl)oxy)phenyl)acetamide], the figures for the IC50 at RIPK2 enzyme and in the assay on human NOD2 signaling were < 2.5 nM and 0.3 nM, respectively.

Take `CSc1ccc2nccc(Oc3ccc(CC(=O)Nc4cnn(C(C)(C)C)c4)cc3C)c2c1` [Compound 486, N-(1-(tert-butyl)-1H-pyrazol-4-yl)-2-(3-methyl-4-((6-(methylthio)quinolin-4-yl)oxy)phenyl)acetamide]: the values for the 50% inhibitory concentration (IC50) at RIPK2 enzyme and in the assay on human NOD2 signaling were < 2.5 nM and 1.8 nM, respectively.

As for `[2H]C([2H])([2H])NC(=O)c1ccc2nccc(Oc3ccc(CC(=O)Nc4cnn(C(C)(C)C)c4)cc3C)c2c1` [Compound 491, 4-(4-(2-((1-(tert-butyl)-1H-pyrazol-4-yl)amino)-2-oxoethyl)-2-methylphenoxy)-N-(methyl-d3)quinoline-6-carboxamide], the values for the IC50 on RIPK2 enzyme and in the assay on human NOD2 signaling were < 2.5 nM and 0.1 nM, respectively.

Turning to `[2H]C([2H])([2H])NC(=O)c1cc2c(Oc3ccc(CC(=O)Nc4cnn(C(C)(C)C)c4)cc3C)ccnc2cc1F` [Compound 493, 4-(4-(2-((1-(tert-butyl)-1H-pyrazol-4-yl)amino)-2-oxoethyl)-2-methylphenoxy)-7-fluoro-N-(methyl-d3)quinoline-6-carboxamide], the IC50 on RIPK2 enzyme was < 2.5 nM; with human NOD2 signaling, 0.2 nM.

Take `Cc1cc(CC(=O)Nc2cnn(C(C)(C)C)c2)c(F)cc1Oc1ccnc2ccc(-c3cnccc3C)cc12` [Compound 507, N-(1-(tert-butyl)-1H-pyrazol-4-yl)-2-(2-fluoro-5-methyl-4-((6-(4-methylpyridin-3-yl)quinolin-4-yl)oxy)phenyl)acetamide]: the values for the IC50 at RIPK2 enzyme and with human NOD2 signaling were < 2.5 nM and 0.3 nM, respectively.

Regarding `Cc1cc(CC(=O)Nc2cnn(C(C)(C)C)c2)c(F)cc1Oc1ccnc2ccc(-c3cccnc3C)cc12` [Compound 508, N-(1-(tert-butyl)-1H-pyrazol-4-yl)-2-(2-fluoro-5-methyl-4-((6-(2-methylpyridin-3-yl)quinolin-4-yl)oxy)phenyl)acetamide], the IC50 was < 2.5 nM at RIPK2 enzyme and 2.5 nM with human NOD2 signaling.

For `[2H]C([2H])([2H])NC(=O)c1ccc2nccc(Oc3cc(F)c(CC(=O)Nc4cnn(C56CC(C5)C6)c4)cc3Cl)c2c1` [Compound 511, 4-(4-(2-((1-(bicyclo[1.1.1]pentan-1-yl)-1H-pyrazol-4-yl)amino)-2-oxoethyl)-2-chloro-5-fluorophenoxy)-N-(methyl-d3)quinoline-6-carboxamide], the IC50 on RIPK2 enzyme is < 2.5 nM; in the assay on human NOD2 signaling, 8 nM.

As to `Cc1cc(CC(=O)Nc2cnn(C(C)(C)C)c2)c(F)cc1Oc1ccnc2ccc(C(=O)NC3(C)COC3)cc12` [Compound 514, 4-(4-(2-((1-(tert-butyl)-1H-pyrazol-4-yl)amino)-2-oxoethyl)-5-fluoro-2-methylphenoxy)-N-(3-methyloxetan-3-yl)quinoline-6-carboxamide], the IC50 at RIPK2 enzyme was < 2.5 nM; with human NOD2 signaling, 1.5 nM.

As to `Cc1cc(CC(=O)Nc2cnn(C(C)(C)C)c2)c(F)cc1Oc1ccnc2ccc(C(=O)N(C)C3(C)CC3)cc12` [Compound 519, 4-(4-(2-((1-(tert-butyl)-1H-pyrazol-4-yl)amino)-2-oxoethyl)-5-fluoro-2-methylphenoxy)-N-methyl-N-(1-methylcyclopropyl)quinoline-6-carboxamide], the IC50 at RIPK2 enzyme was < 2.5 nM; in the assay with human NOD2 signaling, 0.6 nM.

In the case of `Cc1ccnnc1-c1ccc2nccc(Oc3cc(F)c(CC(=O)Nc4cnn(C(C)(C)C)c4)cc3Cl)c2c1` [Compound 520, N-(1-(tert-butyl)-1H-pyrazol-4-yl)-2-(5-chloro-2-fluoro-4-((6-(4-methylpyridazin-3-yl)quinolin-4-yl)oxy)phenyl)acetamide], the IC50 was < 2.5 nM on RIPK2 enzyme and 0.7 nM in the assay on human NOD2 signaling.

Regarding `Cc1cc(CC(=O)Nc2cnn(C(C)(C)C)c2)c(F)cc1Oc1ccnc2ccc(-c3nnc(CO)cc3C)cc12` [Compound 521, N-(1-(tert-butyl)-1H-pyrazol-4-yl)-2-(2-fluoro-4-((6-(6-(hydroxymethyl)-4-methylpyridazin-3-yl)quinolin-4-yl)oxy)-5-methylphenyl)acetamide], the IC50 was < 2.5 nM on RIPK2 enzyme and 2.2 nM with human NOD2 signaling.

On to `Cc1cc(CC(=O)Nc2cnn(C(C)(C)C)c2)c(F)cc1Oc1ccnc2ccc(-c3ncccc3C(F)(F)F)cc12` [Compound 522, N-(1-(tert-butyl)-1H-pyrazol-4-yl)-2-(2-fluoro-5-methyl-4-((6-(3-(trifluoromethyl)pyridin-2-yl)quinolin-4-yl)oxy)phenyl)acetamide], for which the concentration for half-maximal inhibition (IC50) at RIPK2 enzyme worked out at 8.6 nM; in the assay with human NOD2 signaling, 25.8 nM.

For `Cc1cc(CC(=O)Nc2cnn(C(C)(C)C)c2)c(F)cc1Oc1ccnc2ccc(-c3cncnc3C)cc12` [Compound 524, N-(1-(tert-butyl)-1H-pyrazol-4-yl)-2-(2-fluoro-5-methyl-4-((6-(4-methylpyrimidin-5-yl)quinolin-4-yl)oxy)phenyl)acetamide], the IC50 is < 2.5 nM on RIPK2 enzyme and 0.7 nM in the assay with human NOD2 signaling.

In the case of `Cc1cc(CC(=O)Nc2cnn(C(C)(C)C)c2)c(F)cc1Oc1ccnc2ccc(-c3ccnnc3C)cc12` [Compound 525, N-(1-(tert-butyl)-1H-pyrazol-4-yl)-2-(2-fluoro-5-methyl-4-((6-(3-methylpyridazin-4-yl)quinolin-4-yl)oxy)phenyl)acetamide], the IC50 on RIPK2 enzyme is < 2.5 nM; in the assay on human NOD2 signaling, 5.5 nM.

On to `Cc1cc(CC(=O)Nc2cnn(C(C)(C)C)c2)c(F)cc1Oc1ccnc2ccc(-c3c(C)ncnc3C)cc12` [Compound 526, N-(1-(tert-butyl)-1H-pyrazol-4-yl)-2-(4-((6-(4,6-dimethylpyrimidin-5-yl)quinolin-4-yl)oxy)-2-fluoro-5-methylphenyl)acetamide], for which the IC50 is < 2.5 nM on RIPK2 enzyme and 16.1 nM with human NOD2 signaling.

As to `CC(C)(C)n1cc(NC(=O)Cc2cc(Cl)c(Oc3ccnc4ccc(CS(C)(=O)=O)cc34)cc2F)cn1` [Compound 561, N-(1-(tert-butyl)-1H-pyrazol-4-yl)-2-(5-chloro-2-fluoro-4-((6-((methylsulfonyl)methyl)quinolin-4-yl)oxy)phenyl)acetamide], the IC50 at RIPK2 enzyme is < 2.5 nM; with human NOD2 signaling, 15.4 nM.

For the compound `CNC(=O)c1cc2c(Oc3cc(F)c(CC(=O)Nc4cnn(C(C)(C)C)c4)cc3C)ccnc2cc1C` [Compound 564, 4-(4-(2-((1-(tert-butyl)-1H-pyrazol-4-yl)amino)-2-oxoethyl)-5-fluoro-2-methylphenoxy)-N,7-dimethylquinoline-6-carboxamide], the 50% inhibitory concentration (IC50) on RIPK2 enzyme is < 2.5 nM; in the assay with human NOD2 signaling it was 10.8 nM.

Take `CNC(=O)c1cc2c(Oc3cc(F)c(CC(=O)Nc4cnn(C(C)(C)C)c4)cc3C)ccnc2cc1Cl` [Compound 565, 4-(4-(2-((1-(tert-butyl)-1H-pyrazol-4-yl)amino)-2-oxoethyl)-5-fluoro-2-methylphenoxy)-7-chloro-N-methylquinoline-6-carboxamide]: the IC50 was < 2.5 nM on RIPK2 enzyme and 6.9 nM with human NOD2 signaling.

By IC50 is commonly meant the concentration that inhibits the measured activity by half.
